Strand notation (5' to 3'): a small letter for the sugar, then the base; units joined by * are phosphorothioate-linked, units joined directly phosphodiester-linked; [ ] holds rarer units or linkages, { } end groups; capitals alone tell only the bases. e = 2'-O-(2-methoxyethyl) (MOE); [5mC] = 5-methylcytosine; d = 2'-deoxy (DNA)

The subject of this data set is human SMAD7 mRNA. Briefly: Antisense inhibition of human SMAD7 mRNA expression in Hep3B cells by 5-10-5 MOE gapmers, single concentration, electroporation, RT-PCR (Example 1, Study 1 and 2). It is filed as cell-based. The conditions noted are these: for % Inhibition: Study 2, electroporation with 15,000 nM antisense oligonucleotide. In a few lines: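 Readout is percent SMAD7 mRNA inhibition versus untreated cells, measured by qRT-PCR (RTS5062) and corrected for total RNA by RIBOGREEN. Oligonucleotide, 5,000 nM or 15,000 nM, was delivered by electroporation into Hep3B cells at 20,000 per well. RNA was collected about 24 h later.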

The mark [1] stands for this setting: electroporation, 15,000 nM antisense oligonucleotide (Study 2), 5-10-5 MOE gapmers targeting SEQ ID NO: 1 and 2.
The mark [2] stands for this setting: 5-10-5 MOE gapmers targeting SEQ ID NO: 1 and 2.
[3] abbreviates: electroporation, 15,000 nM, approximately 24 hours, relative to untreated control cells, gapmers targeting SEQ ID NO: 1 and 2.

On to “771938 (antisense e[5mC]*e[5mC]*eT*eT*e[5mC]*d[5mC]*d[5mC]*dA*dA*dA*dT*dG*d[5mC]*d[5mC]*dT*eG*e[5mC]*e[5mC]*e[5mC]*e[5mC]) [compound 771938]”, for which the “% inhibition of SMAD7 mRNA expression” value under setting [1] amounted to 29%. Consider “771940 (antisense eT*e[5mC]*e[5mC]*eT*eG*d[5mC]*dT*dG*d[5mC]*d[5mC]*d[5mC]*d[5mC]*dA*dG*d[5mC]*eA*eG*eG*e[5mC]*eT) [compound 771940]”, for which, under setting [2], the “% Inhibition” value was 0%. Consider “771941 (antisense eT*e[5mC]*eA*eA*eT*dG*dA*dT*dG*dA*dT*dG*dG*dG*dT*eT*eG*e[5mC]*eA*e[5mC]) [compound 771941]”, for which, under setting [3], the “% inhibition of SMAD7 mRNA expression” value is on record as 40%. For “771942 (antisense eG*eT*e[5mC]*eG*eG*dT*d[5mC]*dA*dG*dG*dG*d[5mC]*d[5mC]*dT*dT*eG*e[5mC]*e[5mC]*e[5mC]*eT) [compound 771942]”, the “% Inhibition” value under setting [2] stood at 11%. Consider “771943 (antisense eG*eT*eA*eT*eT*dT*dG*dT*dT*dA*dA*d[5mC]*dA*dA*dA*eA*eA*eT*eG*eG) [compound 771943]”, for which, under setting [2], the “% Inhibition” value worked out at 0%. Turning to “771945 (antisense eT*eT*eA*eT*eG*dT*dG*dT*d[5mC]*dT*d[5mC]*dA*dA*dA*dT*eA*eG*eA*eT*eG) [compound 771945]”, the “% inhibition of SMAD7 mRNA expression” value under setting [1] is 0%. The same measure, in the same setting: the value for “771946 (antisense eG*eG*eG*e[5mC]*eT*dA*d[5mC]*d[5mC]*dT*dT*dA*dA*d[5mC]*dA*dA*eA*eG*e[5mC]*eT*eT) [compound 771946]” was 47%.

Turning to “771948 (antisense e[5mC]*eA*e[5mC]*e[5mC]*e[5mC]*dA*dG*d[5mC]*dT*d[5mC]*dT*d[5mC]*dA*dA*dA*eT*e[5mC]*eA*eG*eT) [compound 771948]”, under setting [2], the “% Inhibition” value is recorded as 0%. Regarding “771949 (antisense eA*eG*eA*eT*e[5mC]*dT*dT*dT*d[5mC]*dA*dA*d[5mC]*dT*dG*dG*eA*eT*eG*eG*eA) [compound 771949]”, the “% inhibition of SMAD7 mRNA expression” value under setting [3] was determined as 26%. Consider “771950 (antisense eA*eT*eG*e[5mC]*eA*dA*dA*dG*dG*dG*dA*d[5mC]*d[5mC]*d[5mC]*dT*eT*eA*eA*eT*eA) [compound 771950]”, for which, under setting [2], the “% Inhibition” value was 0%. Take “771951 (antisense e[5mC]*eT*eG*e[5mC]*eA*dG*dA*dG*d[5mC]*dA*d[5mC]*dA*dG*dA*dT*eG*e[5mC]*eA*eA*eA) [compound 771951]”: the “% Inhibition” value under setting [2] was determined as 9%. Regarding “771952 (antisense eT*e[5mC]*eT*eT*e[5mC]*dT*d[5mC]*dT*dG*d[5mC]*dA*dG*dA*dG*d[5mC]*eA*e[5mC]*eA*eG*eA) [compound 771952]”, the “% Inhibition of SMAD7 mRNA” value (electroporation with 15,000 nM antisense oligonucleotide (Study 2), 5-10-5 MOE gapmers targeting SEQ ID NO: 1 and 2) was found to be 26%. For the same substance, the “% inhibition of SMAD7 mRNA expression” value under setting [1] was determined as 0%. “771953 (antisense eT*e[5mC]*eA*e[5mC]*e[5mC]*dA*dG*d[5mC]*dT*d[5mC]*dA*dT*d[5mC]*dT*d[5mC]*eT*e[5mC]*eA*eG*eG) [compound 771953]”: the “% inhibition of SMAD7 mRNA expression” value under setting [1] amounted to 42%.

As for “771954 (antisense e[5mC]*eT*eA*eG*eA*dA*dT*dG*dA*dA*dG*dA*d[5mC]*dA*d[5mC]*e[5mC]*e[5mC]*eG*e[5mC]*e[5mC]) [compound 771954]”, the “% inhibition of SMAD7 mRNA expression” value under setting [1] turned out to be 0%.

The values above are taken from patent US10517889B2, “Modulators of SMAD7 expression” (Ionis Pharmaceuticals, Inc., priority 2017, dated 2019).
